Reference: patent publication US12570612B2, “Substituted nitrogen heterocyclic compound and anesthetic effect thereof” (priority 2019, dated 2026)
“Also recorded” adds a separate entry of the source. Like-named read-outs stand apart in the source and are kept apart here.

How the values were obtained:
[1] = system: Sprague-Dawley rats; assay: animal or person; conditions: for Approximate therapeutic index / Minimal lethal dose: rats
Procedure: Adult male Sprague-Dawley rats (250-300 g) were selected for the experiment. […] The anesthesia effects of the compounds were assessed in rats using a LORR assay and a period >30 s was considered as an indicator of general anesthesia.

[2] = system: Sprague-Dawley rats; assay: Pharmacological characteristics at equivalent doses (2ED50), Group A compounds; format: in vivo; set-up: Sedation duration: unit not given here; conditions: 2ED50, tail vein; for Types and incidence of adverse reactions: (animals affected/animals)
[3] = system: H295R cell line; assay: Adrenocortical function in vitro test: secretion of cortisol and corticosterone, Group A compounds; format: cell-based; conditions: H295 cells; for EC50: 0.1-10000 nM, HPLC-MS/MS
[4] = LORR in rats, tail vein, brackets = 95% confidence limit
[5] = read-out: EC50 (Corticosterone)
[6] = Homo sapiens, read-out: EC50 (Corticosterone)
[7] = Homo sapiens, read-out: EC50 (Cortisol)

SMILES | ED50 [1, 4] | Approximate therapeutic index [1] | Minimal lethal dose [1] [mg/kg] | Onset time [2] [min] | Righting reflex duration [2] [min] | Sedation duration [2] | Types and incidence of adverse reactions [2] | Corticosterone as an indicator to determine the presence of inhibition [3] | Cortisol as an indicator to determine the presence of inhibition [3] | EC50 [3, 5] [nM] | EC50 ([3]; read-out: EC50 (Cortisol)) [nM] | ED50 ([1]; Rattus norvegicus) [mg/kg] | EC50 [3, 6] [nM] | EC50 [3, 7] [nM]
C[C@H](c1ccccc1)n1nccc1C(=O)OCC1CC1 [Compound A3] | C (C indicates that the measured ED50 is in the range of 1.00-2.00 mg/kg (excluding 1.00 mg/kg, including 2.00 mg/kg)) | >6 | >8 | 0.13 ± 0.04 | 2.73 ± 1.08 | 5.76 ± 0.80 | Red urine(8/8), Hindlimb; also recorded: rigidity (1/8) | 0 | 0 | > 1000 | > 1000 |  |  | 
C[C@H](c1ccccc1)n1nccc1C(=O)OC1CSC1 [Compound A6] |  | >5 | >13 | 0.38 ± 0.12 | 3.81 ± 2.17 |  | Red urine(8/8), Facial; also recorded: muscle; also recorded: twitching(2/8), Hindlimb; also recorded: rigidity (1/8) | 0 | 0 |  |  | 2 to 6 | > 1000 | > 1000
CC(=O)C1(OC(=O)c2ccnn2[C@H](C)c2ccccc2)COC1 [Compound A8] |  | >7 | >9 | 0.57 ± 0.20 | 2.70 ± 2.52 |  | Red urine(8/8),; also recorded: Tremor(2/8),; also recorded: Euphoria(1/8) | 0 | 0 |  |  | 1 to 2 | > 1000 | > 1000
CC#CC1(OC(=O)c2ccnn2[C@H](C)c2ccccc2)COC1 [Compound A10] |  | >5 | >12 | 0.43 ± 0.22 | 1.32 ± 0.61 |  | Red urine(8/8),; also recorded: Tremor(3/8), Forelimb; also recorded: clonic; also recorded: convulsion(2/8), Hindlimb; also recorded: rigidity(2/8), Facial; also recorded: muscle twitching(2/8),; also recorded: Nod(1/8) | 0 | 0 |  |  | 2 to 6 | > 1000 | > 1000
CC#CC(C)OC(=O)c1ccnn1[C@H](C)c1ccccc1 (some centres unmarked) [Compound A11] |  | >4 | >8 | 0.41 ± 0.15 | 2.65 ± 1.10 |  | Red urine(6/6), General; also recorded: Tremor(4/6), Hindlimb; also recorded: rigidity (2/6),; also recorded: Convulsion(1/6),; also recorded: Euphoria(1/6) | 0 | 0 |  |  | 1 to 2 | > 100 | > 100
CC#CC(C)(C)OC(=O)c1ccnn1[C@H](C)c1ccccc1 [Compound A12] |  | >4 | >6 | 0.69 ± 0.22 | 3.16 ± 2.13 |  | Red urine(8/8),; also recorded: Tremor(3/8),; also recorded: Euphoria(1/8), Hindlimb; also recorded: rigidity (1/8), Clonic; also recorded: convulsion(1/8), Tetany; also recorded: Apnea(1/8), Nod(1/8) | 0 | 0 |  |  | 1 to 2 | > 100 | > 100
C=CC#CC(C)OC(=O)c1ccnn1[C@H](C)c1ccccc1 (some centres unmarked) [Compound A15] |  | >4 | >9 | 0.40 ± 0.10 | 1.82 ± 0.76 |  | Red urine(8/8),; also recorded: Euphoria(2/8), Hindlimb; also recorded: rigidity(2/8), Hindlimb; also recorded: Tremor(1/8) | 0 | 0 |  |  | 2 to 6 | > 100 | > 100
C=CC#CC(C)(C)OC(=O)c1ccnn1[C@H](C)c1ccccc1 [Compound A16] |  | >4 | >12 | 0.55 ± 0.21 | 2.55 ± 1.54 |  |  | 0 | 0 |  |  | 2 to 6 | > 100 | > 100
CC(=O)C1=C(OC(=O)c2ccnn2[C@H](C)c2ccccc2)CCC1 [Compound A18] |  | >3 | >8 | 0.73 ± 0.10 | 1.19 ± 0.64 |  | Red urine(8/8), Hindlimb; also recorded: rigidity(5/8) | 0 | 0 |  |  | 2 to 6 | > 100 | > 100
CCC(CC)OC(=O)c1ccnn1[C@H](C)c1ccccc1 [Compound A21] | D (D indicates that the measured ED50 is in the range of 2.00-6.00 mg/kg (excluding 2.00 mg/kg, including 6.00 mg/kg)) | >16 | >6 | 0.51 ± 0.10 | 1.16 ± 0.39 | 8.65 ± 2.38 | Red and urine(8/8), Euphoria(3/8), and Four limbs Tremor(2/8), and Hindlimb rigidity (2/8) | 0 | 0 | > 100 | > 100 |  |  | 
CC#CCOC(=O)c1ccnn1[C@H](C)c1ccccc1 [Compound A23] |  | >5 | >11 | 0.48 ± 0.14 | 2.28 ± 1.83 |  | Red and urine(8/8), Euphoria(6/8), and Hindlimb rigidity and (2/8), Tremor(1/8), and Convulsions(1/8) | 0 | 0 |  |  | 2 to 6 | > 100 | > 100
CO[C@H]1C[C@@H](OC(=O)c2ccnn2[C@H](C)c2ccccc2)C1 [Compound A25] |  | >21 | >5 | 0.50 ± 0.12 | 2.6 ± 0.83 |  | Red urine(8/8), Hindlimb; also recorded: rigidity (2/8), Tremor(1/8) | 0 | 0 |  |  | 0.04 to 0.5 | > 1000 | > 1000
C=CC1(OC(=O)c2ccnn2[C@H](C)c2ccccc2)COC1 [Compound A34] |  | >6 | >4 | 0.60 ± 0.32 | 1.6 ± 0.43 |  | Red urine(8/8), Hindlimb; also recorded: rigidity(2/8), Tremor(1/8) | 0 | 0 |  |  | 0.5 to 1 | > 1000 | > 1000
